Test results: US20240277736A1, “USE OF PSILOCYBIN IN THE TREATMENT OF NEUROLOGICAL BRAIN INJURY AND MIGRAINES” (priority 2020, published 2024)
“Also recorded” adds a separate entry of the source.

How the values were obtained:
[1] = Body weight of TBI mice on PID21; format: in vivo, CD1 mice; settings: for body weight: measured on PID21
[2] = Deaths during surgery or post-TBI drug treatment; format: in vivo, CD1 mice; settings: intranasal, day 4 to day 8 after CCI
[3] = biological target: 5-HT2A receptor (Homo sapiens, UniProt P28223); settings: cited from earlier work
Sequence of 5-HT2A receptor (P28223 whole entry): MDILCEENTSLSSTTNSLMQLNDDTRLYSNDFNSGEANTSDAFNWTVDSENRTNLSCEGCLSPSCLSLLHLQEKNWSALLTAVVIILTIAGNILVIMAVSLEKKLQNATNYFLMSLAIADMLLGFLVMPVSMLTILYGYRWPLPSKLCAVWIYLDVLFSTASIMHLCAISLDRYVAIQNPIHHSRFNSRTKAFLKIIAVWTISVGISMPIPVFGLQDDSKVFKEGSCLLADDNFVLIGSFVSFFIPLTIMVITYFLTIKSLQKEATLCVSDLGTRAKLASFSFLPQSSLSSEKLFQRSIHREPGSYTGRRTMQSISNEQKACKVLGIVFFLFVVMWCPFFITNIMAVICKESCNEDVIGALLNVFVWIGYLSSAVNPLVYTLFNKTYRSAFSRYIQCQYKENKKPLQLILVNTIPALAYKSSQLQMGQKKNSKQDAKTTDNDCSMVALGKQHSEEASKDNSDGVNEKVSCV

[4] = biological target: T1, 5-HT1A (Homo sapiens, UniProt P08908); settings: cited from earlier work
T1 sequence (P08908 1-422): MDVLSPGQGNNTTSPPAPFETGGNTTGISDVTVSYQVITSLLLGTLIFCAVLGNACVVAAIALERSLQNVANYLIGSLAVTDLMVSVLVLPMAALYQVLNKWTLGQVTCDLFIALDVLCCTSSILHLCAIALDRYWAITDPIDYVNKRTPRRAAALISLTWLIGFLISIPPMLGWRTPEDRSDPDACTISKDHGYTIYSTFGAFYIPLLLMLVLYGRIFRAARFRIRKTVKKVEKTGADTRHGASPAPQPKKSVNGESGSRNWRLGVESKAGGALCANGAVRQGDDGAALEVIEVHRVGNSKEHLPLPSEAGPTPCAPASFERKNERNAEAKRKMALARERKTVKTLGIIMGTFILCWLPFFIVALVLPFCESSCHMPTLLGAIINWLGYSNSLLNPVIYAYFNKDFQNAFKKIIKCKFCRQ

[5] = system: cluster headache (CH); settings: low-dose psilocybin; cited from earlier work
[6] = system: primary cortical neuronal culture (PCN); assay: Glutamate neurotoxicity in primary cortical neuronal culture, MAP2 immunostaining; settings: Glu 100 µM
[7] = system: TBI mice; assay: Morris water maze test in a mouse model of traumatic brain injury (controlled cortical impact)
[8] = high dose Psilocybin, day 4 to day 8, PID 10, 14 and 21

For `CN(C)CCc1c[nH]c2cccc(OP(=O)(O)O)c12` [Psilocybin, 4-phosphoryloxy-N,N-dimethyltryptamine], the “Body weight (in words)” value ([1]; PID21) was “did not significantly alter”, the body weight ([1]; Psi-H (high dose)) was 34.7 ± 0.87 g and the body weight ([1]; Psi-L (low dose)) was 35.71 ± 0.68 g. For the same molecule, the “Animal deaths during post-TBI drug treatment” value [2] was “No animal died”, the “Agonist activity at 5-HT2A receptor” value [3] was “strong agonist” and the “Agonist activity at 5-HT1A” value [4] was “moderate agonist”. The “Effect on cluster headache” value [5] was “can prevent”, the “Antagonism of glutamate-mediated reduction of MAP2 immunoreactivity (neuronal loss)” value ([6]; PSI 100 nM or 1 μM, n=5-6 per group) was “not significantly altered; also recorded: non-significant trend; also recorded: not significantly antagonized; also recorded: did not significantly alter” and the “No. of crossing (average number of platform crossings)” value (“No. of crossing” below) ([7]; Psi-H (high dose), Day 3 (PID3, before drug treatment)) was 4.43 ± 0.69. The “No. of crossing” value ([7]; Psi-H (high dose, i.n. day 4 to day 8 after CCI), Day 10) was 6.00 ± 0.85, the “No. of crossing” value ([7]; Psi-H (high dose, i.n. day 4 to day 8 after CCI), Day 14) was 6.00 ± 0.44 and the “No. of crossing” value ([7]; Psi-H (high dose, i.n. day 4 to day 8 after CCI), Day 21) was 6.00 ± 0.66. For the same molecule, the “No. of crossing” value ([7]; Psi-L (low dose), Day 3 (PID3, before drug treatment)) was 3.57 ± 0.90, the “No. of crossing” value ([7]; Psi-L (low dose, i.n. day 4 to day 8 after CCI), Day 10) was 4.14 ± 0.51 and the “No. of crossing” value ([7]; Psi-L (low dose, i.n. day 4 to day 8 after CCI), Day 14) was 4.43 ± 0.61. The “No. of crossing” value ([7]; Psi-L (low dose, i.n. day 4 to day 8 after CCI), Day 21) was 3.29 ± 0.57, the “Average number of platform crossings in TBI mice (in words)” value [7, 8] was “significantly increased” and the “Time in the target area in TBI mice (in words)” value [7, 8] was “significantly increased”. For the same molecule, the “Cognitive function in TBI mice (Morris water maze)” value ([7]; i.n. starting 4 days after TBI for 5 days) was “significantly improved”.

With `N[C@@H](CCC(=O)O)C(=O)O` [Glu, glutamate] the “Effect on MAP2 immunoreactivity (MAP2-ir) vs. vehicle” value ([6]; 48 hrs) was “significantly reduced”.
